Common to all, as to assay: relative viability (nuclei count vs DMSO), 5 days (fraction); higher = more cells survive
Compound in the test “Vandetanib + Vorinostat”: COc1cc2/c(=N/c3ccc(Br)cc3F)nc[nH]c2cc1OCC1CCN(C)CC1 [Vandetanib] + O=C(CCCCCCC(=O)Nc1ccccc1)NO [Vorinostat] (partner 1 µM)
Summed up:
(§1)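 One day after seeding in 1536-well plates, lung cancer cell lines were dosed by pin tool. Dosing was either single-drug or a fixed anchor-drug dose plus five library-drug doses (not always all listed) in √10 steps. After 5 days, nuclei were stained in one fix-and-stain step and counted on 4× images, and relative viability is the nuclei count of treated wells over that of vehicle wells, given as the median of duplicate plates.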

Compound in the test “CUDC-101 + Alpelisib”: C#Cc1cccc(Nc2ncnc3cc(OC)c(OCCCCCCC(=O)NO)cc23)c1 [CUDC-101] + Cc1nc(NC(=O)N2CCC[C@H]2C(N)=O)sc1-c1ccnc(C(C)(C)C(F)(F)F)c1 [Alpelisib] (partner 2 µM)
The method in brief: as §1

Compound in the test “NVP-TAE684 + Pemetrexed”: COc1cc(N2CCC(N3CCN(C)CC3)CC2)ccc1Nc1ncc(Cl)c(Nc2ccccc2S(=O)(=O)C(C)C)n1 [NVP-TAE684] + Nc1nc2[nH]cc(CCc3ccc(C(=O)N[C@@H](CCC(=O)O)C(=O)O)cc3)c2c(=O)[nH]1 [Pemetrexed] (partner 0.2 µM)
The method in brief: as §1

Compound in test [1]: C1=CC=C2C(=C1)N=C(S2)C(C#N)C3=NC(=NC=C3)NCCC4=CN=CC=C4 + CCNC(=O)c1noc(-c2cc(C(C)C)c(O)cc2O)c1-c1ccc(CN2CCOCC2)cc1 [Luminespib] (partner 0.01 µM)
Summed up:
as §1

Consider UMC-11, for which the relative viability was found to be 0.43 with Vandetanib + Vorinostat (first compound 0.02 µM); 0.373 in the test with Vandetanib + Vorinostat (first compound 0.06325 µM); 0.399 with Vandetanib + Vorinostat (first compound 0.2 µM); 0.342 with Vandetanib + Vorinostat (first compound 0.6325 µM); 0.364 with Vandetanib + Vorinostat (first compound 2 µM); 1.24 with CUDC-101 + Alpelisib (first compound 0.01 µM). Further, the relative viability with CUDC-101 + Alpelisib (first compound 0.03162 µM) amounted to 0.902; with CUDC-101 + Alpelisib (first compound 0.1 µM) it was 0.779; with CUDC-101 + Alpelisib (first compound 0.3162 µM), 0.395; with CUDC-101 + Alpelisib (first compound 1 µM), 0.123; in the test with NVP-TAE684 + Pemetrexed (first compound 0.2 µM) it was 0.736; in the test with NVP-TAE684 + Pemetrexed (first compound 0.6325 µM), 0.735. In addition, the relative viability with NVP-TAE684 + Pemetrexed (first compound 2 µM) came to 0.347; in test [1] (first compound 0.005 µM), 0.735; in test [1] (first compound 0.01581 µM), 1.04; in test [1] (first compound 0.05 µM) it was 0.861; in test [1] (first compound 0.1581 µM), 1.03; in test [1] (first compound 0.5 µM), 0.957.
